One series concerns U2OS cells. Nature of the series: Immunofluorescence cell based assays, overall summary. Particulars: summary of all immunofluorescence experiments. On the procedure: (§1) In the indicated experiments, the inventive compounds and commercial dye were evaluated for immunofluorescence in a cell based assay using the following protocol. Frozen U20S cell plates stored at −80° C. were thawed for 30 minutes at 50° C. Storage buffer (PBS) was removed and the cells were permeabilized for 15 minutes with 0.1% Triton-X100 in 1×PBS buffer (100 μl/well). The cell plate was blocked for 60 minutes in 2% BSA/PBS-0.1% Triton-X100. Primary antibody, either rabbit anti-lamin B1 or rabbit anti-HDAC2 (10 μg/ml), diluted in 2% BSA/PBS-0.1% Triton-X100 was added to the plate and incubated for one hour at room temperature. Control wells contained only 2% BSA/PBS-0.1% Triton-X100 blocker. After incubation, antibody solution was removed from the plate and the plate was washed three times with 100 μl/well PBS-0.5% Tween-20 and one time with 100 μl/well PBS. GAR secondary antibodies labeled with various molar excess of the inventive or commercial compound were diluted to 4 μg/ml in PBS and incubated for one hour at room temperature. Plates were washed three times with 100 μl/well PBST and once with 100 μl/well PBS, and Hoechst (diluted to 0.1 μg/ml in PBS) was added to each well (100 μl/well). The plates were scanned on ArrayScan Plate Reader.
In the indicated experiments, the inventive compounds and commercial dye were evaluated for immunofluorescence in a cell based assay using the following protocol. Frozen U20S cell plates which were stored at −80° C. were thawed for 30 minutes at 50° C. Storage buffer (PBS) was removed and cells were permeabilized for 15 minutes with 0.1% Triton-X100 in 1×PBS buffer (100 μl/well). The cell plate was blocked for 60 minutes in 2% BSA/PBS-0.1% Triton-X100. Primary antibody, either mouse anti-ezrin (1.3 μg/ml) or mouse anti-NCoR2 (20 μg/ml), diluted in 2% BSA/PBS-0.1% Triton-X100 was added to the plate and incubated for one hour at room temperature. Control wells contained only 2% BSA/PBS-0.1% Triton-X100 blocker. […] The plates were scanned on ArrayScan Plate Reader.

The test system of the next series is HDAC2 in U2OS cells. As to the kind of experiment: Immunofluorescence cell based assay, nuclear detection of HDAC2 with dye-GAR. To be noted: for quenching with molar excess: HDAC2 experiment. On the procedure:
as §1
Quantitative analysis of the data of FIGS. 14-16, expressed as Mean Total Intensity, which is the average total intensity of all pixels within a defined area or defined primary object such as a nucleus, is shown below; “Neg” indicates negative control.

Another series concerns ezrin in U2OS cells. As to the kind of experiment: Immunofluorescence cell based assay, detection of ezrin with dye-GAM. Particulars: 2.5×-15× molar excess. On the procedure: In the indicated experiments, the inventive compounds and commercial dye were evaluated for immunofluorescence in a cell based assay using the following protocol. Frozen U20S cell plates which were stored at −80° C. were thawed for 30 minutes at 50° C. Storage buffer (PBS) was removed and cells were permeabilized for 15 minutes with 0.1% Triton-X100 in 1×PBS buffer (100 μl/well). The cell plate was blocked for 60 minutes in 2% BSA/PBS-0.1% Triton-X100. Primary antibody, either mouse anti-ezrin (1.3 μg/ml) or mouse anti-NCoR2 (20 μg/ml), diluted in 2% BSA/PBS-0.1% Triton-X100 was added to the plate and incubated for one hour at room temperature. Control wells contained only 2% BSA/PBS-0.1% Triton-X100 blocker. After incubation, the antibody solution was removed from the plate and the plate was washed three times with 100 μl/well of PBS-0.5% Tween-20 and one time with 100 μl/well PBS. GAM secondary antibodies labeled with various molar excess of the inventive or commercial compound were diluted to 4 μg/ml in PBS and incubated for one hour at room temperature. […] The plates were scanned on ArrayScan Plate Reader.
Quantitative analysis of the data of FIGS. 17-19, expressed as Mean Total Intensity, which is the average total intensity of all pixels within a defined area or defined primary object such as a nucleus, is shown below; “Neg” indicates negative control.

The nature of series [1]: Excitation/emission properties of dye NHS esters. The format is physicochemical. An excerpt:
The following properties of V03-07005, V08-16072, V13-06190, and V17-03019 were compared with commercially available dyes. DyLight 680 NHS is a non-pegylated benzopyrylium dye and the ‘V’ dyes are pegylated dyes described above.

A further series concerns NCoR2 in U2OS cells. As to the kind of experiment: Immunofluorescence cell based assay, detection of NCoR2 with dye-GAM. Particulars: for quenching with molar excess: NCoR2 experiment. On the procedure:
In the indicated experiments, the inventive compounds and commercial dye were evaluated for immunofluorescence in a cell based assay using the following protocol. Frozen U20S cell plates which were stored at −80° C. were thawed for 30 minutes at 50° C. Storage buffer (PBS) was removed and cells were permeabilized for 15 minutes with 0.1% Triton-X100 in 1×PBS buffer (100 μl/well). The cell plate was blocked for 60 minutes in 2% BSA/PBS-0.1% Triton-X100. Primary antibody, either mouse anti-ezrin (1.3 μg/ml) or mouse anti-NCoR2 (20 μg/ml), diluted in 2% BSA/PBS-0.1% Triton-X100 was added to the plate and incubated for one hour at room temperature. Control wells contained only 2% BSA/PBS-0.1% Triton-X100 blocker. After incubation, the antibody solution was removed from the plate and the plate was washed three times with 100 μl/well of PBS-0.5% Tween-20 and one time with 100 μl/well PBS. GAM secondary antibodies labeled with various molar excess of the inventive or commercial compound were diluted to 4 μg/ml in PBS and incubated for one hour at room temperature. The plates were washed three times with 100 μl/well of PBST and once with 100 μl/well PBS, and Hoechst (diluted to 0.1 μg/ml in PBS) was added to each well (100 μl/well). The plates were scanned on ArrayScan Plate Reader.
NCoR2 was detected in U2OS cells with V03-07005-GAM, V08-16072-GAM, V13-06190-GAM, V17-03019-GAM, DyLight 680-GAM, and Alexa Fluor 680-GAM at a 2.5×, 5×, 10×, and 15× molar excesses. Quantitative analysis of the data, expressed as Mean Total Intensity, which is the average total intensity of all pixels within a defined area or defined primary object such as a nucleus, is shown below, where “Neg” indicates the negative control condition.

Another series relates to lamin B1 in U2OS cells. As to the kind of experiment: Immunofluorescence cell based assay, detection of lamin B1 with dye-GAR. To be noted: for quenching with molar excess: lamin B1 experiment. On the procedure: as §1
Quantitative analysis of the data of FIGS. 11-13, expressed as Mean Total Intensity, which is the average total intensity of all pixels within a defined area or defined primary object such as a nucleus, is shown below; “Neg” indicates negative control.

A further series relates to mouse IgG immunoglobulin. As to the kind of experiment: Functional plate assay of dye-GAM conjugates, LiCor Odyssey 700 channel. The format is binding. Particulars: GAM conjugated with 5× molar excess, FIG. 6-7. On the procedure:
Performance of dye-GAM and dye-GAR conjugates was evaluated in a functional assay. Wells of a 96-well black clear-bottom plate were coated with target protein mouse or rabbit IgG immunoglobulin. One hundred μl mouse or rabbit IgG, at 10 μg/ml, was applied to the corresponding wells in row 1. The target proteins were serially diluted 1:1 from the wells in rows 2 to 7 using 100 μl PBS. One hundred μl of samples from the wells in row 7 were discarded. One hundred μl PBS was added to the wells in row 8. Plates were incubated overnight at 4° C. and then blocked 2×200 μl with Thermo Scientific SuperBlock® Blocking Buffer. The coated plates were washed 2×200 μl with PBS-Tween and 1×200 μl with PBS. Based on the calculated concentrations, conjugates were diluted 1:250 (of 1 mg/ml) in PBS, added to the corresponding plates (100 μl/well) and then incubated for one hour in the dark. The plates were washed with 2×200 μl with PBS-Tween and 1×200 μl with PBS and filled with PBS buffer (100 μl/well) prior to scanning the black clear-bottom plates on LiCor Odyssey at 700 channel, to detect fluorescence intensity.
As shown in FIGS. 1-10, RFU and/or signal to background ratio (S/B) of the dyes conjugated to the indicated antibody were compared at various concentrations, using the indicated conjugation conditions.

The values below come from patent US10174045B2, “Benzopyrylium compounds” (Pierce Biotechnology, Inc., priority 2012, dated 2019).

Marks after values point to notes of the source that are not given here.

Take `COCCOCCOCCOCCN(CCOCCOCCOCCOC)c1ccc2c(C(C)(C)C)cc(/C=C/C=C3/N(CCCS(=O)(=O)[O-])c4ccc(S(=O)(=O)[O-])cc4C3(C)CCCC(=O)O)[o+]c2c1.[Na+]` (stereo not shown) [Compound V03-07005, (E)-2-((E)-3-(4-tert-butyl-7-(di2,5,8,11-tetraoxatridecan-13-ylamino)chromenylium-2-yl)allylidene)-3-(3-carboxypropyl)-3-methyl-1-(3-sulfonatopropyl)indoline-5-sulfonate]: the “staining performance, in words” value in the series with U2OS cells is listed as “best performing benzopyrylium dye”. Moreover, the “staining / S/B performance, in words” value in the series on HDAC2 in U2OS cells (HDAC2, 2.5×-15× molar excess) is “best performing benzopyrylium dye”; with ezrin in U2OS cells, “best performing benzopyrylium dye”; in the series with NCoR2 in U2OS cells (NCoR2, 2.5×-15× molar excess), “best performing benzopyrylium dye”; in the series on lamin B1 in U2OS cells (lamin B1, 2.5×-15× molar excess) it was “best performing benzopyrylium dye”. Moreover, the Ex is 690 nm in series [1] (EtOH) and “about 675 nm” in series [1] (PBS). Further, the “binding intensity (RFU), in words” value in the series with mouse IgG immunoglobulin is reported as “performed best of the benzopyrylium dyes”.
For the compound `COCCOCCOCCOCCN(CCCS(=O)(=O)[O-])c1ccc2c(C(C)(C)C)cc(/C=C/C=C3/N(CCCCCC(=O)O)c4ccc(S(=O)(=O)[O-])cc4C3(C)CCCS(=O)(=O)[O-])[o+]c2c1.[Na+].[Na+]` (stereo not shown) [Compound V08-16072, (E)-2-((E)-3-(4-tert-butyl-7-((3-sulfonatopropyl)(2,5,8,11-tetraoxatridecan-13-yl)amino)chromenylium-2-yl)allylidene)-1-(5-carboxypentyl)-3-methyl-3-(3-sulfonatopropyl)indoline-5-sulfonate], the “quenching with molar excess” value in the series on U2OS cells is given as “gradual quenching from 2.5× molar excess condition”; in the series on HDAC2 in U2OS cells, “gradually quenching from 2.5× molar excess condition”; with NCoR2 in U2OS cells, “gradually quenched from the 2.5× molar excess condition”; in the series with lamin B1 in U2OS cells it was “gradually quenching from 2.5× molar excess condition”. For the same compound, the Ex in series [1] (EtOH) is on record as 690 nm; in series [1] (PBS), “about 675 nm”.
As for `COCCOCCOCCOCCN(CCCS(=O)(=O)[O-])c1ccc2c(C(C)(C)C)cc(/C=C/C=C3/N(CCOCCOCCOCCOCCC(=O)O)c4ccc(S(=O)(=O)[O-])cc4C3(C)CCCS(=O)(=O)[O-])[o+]c2c1.[Na+].[Na+]` (stereo not shown) [Compound V13-06190, (E)-2-((E)-3-(4-tert-butyl-7-((3-sulfonatopropyl)(2,5,8,11-tetraoxatridecan-13-yl)amino)chromenylium-2-yl)allylidene)-1-(14-carboxy-3,6,9,12-tetraoxatetradecyl)-3-methyl-3-(3-sulfonatopropyl)indoline-5-sulfonate], the “quenching with molar excess” value in the series with U2OS cells is given as “gradual quenching from 2.5× molar excess condition”; in the series on HDAC2 in U2OS cells it was “gradually quenching from 2.5× molar excess condition”; in the series with NCoR2 in U2OS cells, “gradually quenched from the 2.5× molar excess condition”; with lamin B1 in U2OS cells, “gradually quenching from 2.5× molar excess condition”. Moreover, the Ex in series [1] (EtOH) is recorded as 690 nm; in series [1] (PBS) it was “about 675 nm”.
For `COCCOCCOCCOCCN(CCCS(=O)(=O)[O-])c1ccc2c(C(C)(C)C)cc(/C=C/C=C3/N(CCCS(=O)(=O)[O-])c4ccc(S(=O)(=O)[O-])cc4C3(C)CCCC(=O)O)[o+]c2c1.[Na+].[Na+]` (stereo not shown) [Compound V17-03019, (E)-2-((E)-3-(4-tert-butyl-7-((3-sulfonatopropyl)(2,5,8,11-tetraoxatridecan-13-yl)amino)chromenylium-2-yl)allylidene)-3-(3-carboxypropyl)-3-methyl-1-(3-sulfonatopropyl)indoline-5-sulfonate], the figures for the Ex in series [1] (EtOH) and in series [1] (PBS) were 690 nm and “about 675 nm”, respectively.
`COCCOCCOCCOCCN(CCOCCOCCOCCOC)c1ccc2c(C(C)(C)C)cc(/C=C/C=C3/N(CCCS(=O)(=O)[O-])c4ccc(S(=O)(=O)[O-])cc4C3(C)CCCC(=O)ON3C(=O)CCC3=O)[o+]c2c1.[Na+]` (stereo not shown) [V03-07005-NHS] came in with an Em in series [1] of 708 nm. Further, the Ex in series [1] (EtOH) is 690 (EtOH) nm; in series [1] (PBS), 675 (PBS)* nm.
In the case of `COCCOCCOCCOCCN(CCCS(=O)(=O)[O-])c1ccc2c(C(C)(C)C)cc(/C=C/C=C3/N(CCCCCC(=O)ON4C(=O)CCC4=O)c4ccc(S(=O)(=O)[O-])cc4C3(C)CCCS(=O)(=O)[O-])[o+]c2c1.[Na+].[Na+]` (stereo not shown) [V08-16072-NHS], the Em in series [1] is recorded as 712 nm. In addition, the Ex in series [1] (EtOH) is 691 (EtOH) nm; in series [1] (PBS) it was 679 (PBS)* nm.
In the case of `COCCOCCOCCOCCN(CCCS(=O)(=O)[O-])c1ccc2c(C(C)(C)C)cc(/C=C/C=C3/N(CCOCCOCCOCCOCCC(=O)ON4C(=O)CCC4=O)c4ccc(S(=O)(=O)[O-])cc4C3(C)CCCS(=O)(=O)[O-])[o+]c2c1.[Na+].[Na+]` (stereo not shown) [V13-06190-NHS], the Em in series [1] is recorded as 712 nm. The figures for the Ex in series [1] (EtOH) and in series [1] (PBS) were 691 (EtOH) nm and 679 (PBS)* nm, respectively.
In series [1], `COCCOCCOCCOCCN(CCCS(=O)(=O)[O-])c1ccc2c(C(C)(C)C)cc(/C=C/C=C3/N(CCCS(=O)(=O)[O-])c4ccc(S(=O)(=O)[O-])cc4C3(C)CCCC(=O)ON3C(=O)CCC3=O)[o+]c2c1.[Na+].[Na+]` (stereo not shown) [V17-03019-NHS] showed an Em of 712 nm. The Ex in series [1] (EtOH) was 691 (EtOH) nm; in series [1] (PBS), 675 (PBS)* nm.
